Patent US20240140950A1, “NITROGEN-CONTAINING POLYCYCLIC AROMATIC COMPOUND, and PREPARATION METHOD AND APPLICATION THEREOF” (priority 2021, published 2024)
Like-named read-outs stand apart in the source and are kept apart here.

Key:
cancer cell MCF-7 = assay: MTT cell inhibition assay, MCF-7; assay type: cell-based
Description: (§4) Two cancer cell lines HELA and MCF-7 in the logarithmic phase and the human normal cell line 293T are taken and the cells thereof are counted with a cell counting plate, and then the concentration of the cell suspension is adjusted to 10^5 cells/mL. The cells are inoculated into a 96-well plate with 100 μL of cell suspension for each well. After the cell suspension is evenly distributed, and the plate is placed into a CO2 incubator for incubation. […] For each drug to be tested and control groups, 100 μL of the drug to be tested is added to each well; and four parallel replicates are set for each concentration. After 48 h cultivation, 10 μL MTT is added for another 4 h cultivation, and the supernatant is discarded. 100 μL analytically pure dimethyl sulfoxide is added, and shaken evenly on a shaking table. After the solution is completely uniform, its absorbance is measured at a wavelength of 490 nm with a microplate reader. The experiment is repeated twice.

human normal cell 293T = assay: MTT cytotoxicity assay, human normal cell 293T; assay type: cell-based; conditions: 48 h, read-out: IC50 value of the inhibition on human normal cell 293T
Description: Two cancer cell lines HELA and MCF-7 in the logarithmic phase and the human normal cell line 293T are taken and the cells thereof are counted with a cell counting plate, and then the concentration of the cell suspension is adjusted to 10^5 cells/mL. The cells are inoculated into a 96-well plate with 100 μL of cell suspension for each well. After the cell suspension is evenly distributed, and the plate is placed into a CO2 incubator for incubation. The drug to be tested is added after the cells grow uniformly and have spread on all the bottom of the culture dish. DMEM culture solution is used as a negative control group (the drug to be tested is completely dissolved in the culture solution without dissolving it in DMSO), and cisplatin is used as a positive control group. For each drug to be tested and control groups, 100 μL of the drug to be tested is added to each well; and four parallel replicates are set for each concentration. After 48 h cultivation, 10 μL MTT is added for another 4 h cultivation, and the supernatant is discarded. 100 μL analytically pure dimethyl sulfoxide is added, and shaken evenly on a shaking table. After the solution is completely uniform, its absorbance is measured at a wavelength of 490 nm with a microplate reader. The experiment is repeated twice.

cancer cell HELA = assay: MTT cell inhibition assay, HELA; assay type: cell-based; conditions: 48 h
Description: as §4

SP2/0 Mouse myeloma = assay: Flow cytometric detection of cell apoptosis (Annexin V-FITC/PI), SP2/0; assay type: cell-based; conditions: for Apoptosis in early stage / Apoptosis in late stage: 48 h
Description: (§1) The cells that are in logarithmic phase and have good condition are taken, digested with trypsin, the prepared culture medium is added to prepare a cell suspension, and the cell density is adjusted to 5×10^4 cells/mL. The digested cells are inoculated in 6-well plate, in which 2 mL cell suspension is added to each well, and incubated overnight in a cell incubator at 37° C. with 5% CO2. After the cells are adhered to the wall, a blank control group and the group of experimental drug to be tested with different concentration gradients are set respectively. 2 mL drug is added to each well for further cultivation for 48 h, and EDTA-free trypsin is used for cell digestion and the digested cells are collected. For the apoptosis detection, the collected cells are required to be adjusted to the cell density of 1×10^6 cells/mL, put into a 5 mL centrifuge tube and centrifuged at 1000 rpm for 5 min, and then washed with PBS for three times. 100 μL Binding Buffer is added to resuspend the cells, and except for the single-stained control and blank control cells, 5 μL FITC and 5 μL PI are added to each tube, mixed gently, and incubated at room temperature in the dark for 15 min. 400 μL Binding Buffer is added into each well before testing on the machine, and mixed and tested on the machine. • Blank control: drug-induced apoptotic cells—without adding a fluorescent reagent (the voltage of scattered light is adjusted to determine the FSC SSC of the population). • Negative control: normal cells (without drug treatment)—added with all the fluorescent staining reagents of the experiment (at the lower left corner, the voltage of the two fluorescent channels is determined). • Single-stained control: one tube each for FITC and PI, positive control for compensation adjustment: drug-induced apoptotic cells or heat-induced apoptotic cells are added with all fluorescent reagents of the experiment (confirming that there is no problem with reagents, instruments and operations).

A375 Human melanoma = assay: Flow cytometric detection of cell apoptosis (Annexin V-FITC/PI), A375; assay type: cell-based; conditions: 48 h
Description: as §1

[1] = tested on: human lung cancer cell A549; assay: CCK-8 cell survival assay, A549; assay type: cell-based; conditions: CCK-8, 48 h, read-out: IC50 value of the inhibition on A549
Description: (§2) a. […] Reagents • CCK8 reagent kit, purchased from TargetMol China; Annexin V-FITC/PI double staining cell apoptosis detection kit, purchased from Seven Biotech Company. c. Instruments • Multi-function microplate reader FLUOstar Omega, purchased from BMG LABTECH, Germany; • Flow cytometer, purchased from BD Company, United States. d. Experimental Method
(§3) The cells in logarithmic phase with good condition are taken and digested with trypsin, and the prepared culture medium is added to prepare a cell suspension, the cell density being adjusted to 5×10^4 cells/mL. The digested cells are inoculated into a 96-well plate, in which 100 μL of cell suspension is added to each well, and incubated overnight in a cell incubator at 37° C. with 5% CO2. After the cells grow adhered to the wall, the blank control group and the compound groups to be tested with different concentration gradients are set up respectively. […] The optical density value (OD) is measured by using a multifunctional enzyme-linked immunosorbent assay instrument, the wavelength setting to 450 nm. The experiment is repeated for three times, the cell survival rates of different drug concentrations in each group are calculated and counted according to a formula: cell survival rate=(experimental group−blank control group/control group)×100%, and the results are calculated with GraphPad Prism software.

mouse myeloma SP2/0 = assay: CCK-8 cell survival assay, SP2/0; assay type: cell-based; conditions: CCK-8, 48 h, read-out: IC50 value of the inhibition on SP2/0
Description: as §2, §3

[2] = tested on: human triple negative breast cancer MDA-MB-231; assay: CCK-8 cell survival assay, MDA-MB-231; assay type: cell-based; conditions: CCK-8, 48 h, read-out: IC50 value of the inhibition on MDA-MB-231
Description: as §2, §3

human melanoma A375 = assay: CCK-8 cell survival assay, A375; assay type: cell-based; conditions: CCK-8, 48 h, read-out: IC50 value of the inhibition on A375
Description: as §2, §3

[3] = tested on: MDA-MB-231 Human triple negative breast cancer; assay: Flow cytometric detection of cell apoptosis (Annexin V-FITC/PI), MDA-MB-231; assay type: cell-based; conditions: 48 h
Description: as §1

KM mice = assay: Mouse toxicity test (acute, intraperitoneal); assay type: in vivo
Excerpt: 12 KM mice with body weight 18 g to 22 g and age of 4 to 6 weeks are taken and fed adaptively for 7 days. All mice may eat freely and be provided with sufficient fresh drinking water. The feeding environment for mice meets the standard of SPF laboratory animal level environmental facility.
The behavioral changes after administration and death within 14 days of the animals are observed.

[4] = tested on: A549 Human lung cancer cell; assay: Flow cytometric detection of cell apoptosis (Annexin V-FITC/PI), A549; assay type: cell-based; conditions: 48 h
Description: as §1

[5] = KM mice, 40 mg/kg intraperitoneal

For Cc1ccc2c(c1)C13CCNC1(C)C1(C)c4[nH]c5ccc(C)cc5c4CCN1C3N2 (stereo not shown) [Compound 15], which IC50 (cancer cell MCF-7; Homo sapiens, MCF7, 48 h) is on record?
Its IC50 is 29.8 µM.

And the IC50 (human normal cell 293T; Homo sapiens, HEK-293T)?
The IC50 was 134 µM.

What about the IC50 (cancer cell HELA; Homo sapiens, HeLa) of the same molecule?
The IC50 was 23.6 µM.

Cc1ccc2c(c1)C13CCNC1C1(C)c4[nH]c5ccc(C)cc5c4CCN1C3N2 (stereo not shown) [Compound 20] was tested. Which IC50 (cancer cell HELA; Homo sapiens, HeLa) did it give?
The IC50 was 40.1 µM.

For COc1ccc2c(c1)C13CCNC1(C)C1(C)c4[nH]c5ccc(OC)cc5c4CCN1C3N2 (stereo not shown) [Compound 14], which “Apoptosis in early stage” value (SP2/0 Mouse myeloma; SP2/0, 10 μM) is on record?
The value was 13.15 ± 0.57%.

And the “Apoptosis in late stage” value (SP2/0 Mouse myeloma; SP2/0, 10 μM)?
The value was 13.44 ± 1.50%.

What about the “Apoptosis in early stage” value (SP2/0 Mouse myeloma; SP2/0, 20 μM) of the same molecule?
Its value is 35.97 ± 3.37%.

And the “Apoptosis in late stage” value (SP2/0 Mouse myeloma; SP2/0, 20 μM)?
Its value is 26.65 ± 1.64%.

And the “total apoptosis rate at early and late stages” value (SP2/0 Mouse myeloma; SP2/0, 30 μM)?
Its value is 97%.

And the “Apoptosis in early stage” value (SP2/0 Mouse myeloma; SP2/0, 30 μM)?
Its value is 58.56 ± 1.26%.

What about the “Apoptosis in late stage” value (SP2/0 Mouse myeloma; SP2/0, 30 μM) of the same molecule?
Its value is 39.36 ± 0.87%.

What about the “Apoptosis in early stage” value (A375 Human melanoma; A375, 10 μM) of the same molecule?
The value was 27.41 ± 1.87%.

And the “Apoptosis in late stage” value (A375 Human melanoma; A375, 10 μM)?
The value was 10.03 ± 1.87%.

What about the “Apoptosis in early stage” value (A375 Human melanoma; A375, 20 μM) of the same molecule?
The value was 34.09 ± 3.2%.

And the “Apoptosis in late stage” value (A375 Human melanoma; A375, 20 μM)?
The value was 13.17 ± 2.30%.

What about the IC50 ([1]; Homo sapiens, A549) of the same molecule?
The IC50 was 30.8 ± 1.72 µM.

What about the IC50 (mouse myeloma SP2/0; Mus musculus) of the same molecule?
Its IC50 is 15.1 ± 2.91 µM.

And the IC50 ([2]; Homo sapiens, MDA-MB-231)?
Its IC50 is 26 ± 1.43 µM.

What about the IC50 (human melanoma A375; Homo sapiens, A-375) of the same molecule?
The IC50 was 17.1 ± 1.45 µM.

What about the “Apoptosis in early stage” value ([3]; MDA-MB-231, 15 μM) of the same molecule?
Its value is 9.21 ± 1.14%.

And the “Apoptosis in late stage” value ([3]; MDA-MB-231, 15 μM)?
The value was 13.41 ± 1.24%.

And the “Apoptosis in early stage” value ([3]; MDA-MB-231, 30 μM)?
The value was 17.70 ± 3.31%.

What about the “Apoptosis in late stage” value ([3]; MDA-MB-231, 30 μM) of the same molecule?
Its value is 16.33 ± 0.72%.

And the “Apoptosis in early stage” value ([3]; MDA-MB-231, 45 μM)?
Its value is 20.83 ± 2.79%.

And the “Apoptosis in late stage” value ([3]; MDA-MB-231, 45 μM)?
Its value is 23.66 ± 1.70%.

And the “behavioral changes after administration” value (KM mice; KM mice, 20 mg/kg intraperitoneal)?
The value was “no abnormalities”.

What about the “behavior and spirit of the animals” value (KM mice; [5]) of the same molecule?
The value was “normal”.

And the “death within 14 days” value (KM mice; [5])?
Its value is “no death occurs”.

And the “death within 14 days” value (KM mice; KM mice, 60 mg/kg intraperitoneal)?
Its value is “one animal dies on the sixth day”.

And the “death within 14 days” value (KM mice; KM mice, 80 mg/kg intraperitoneal)?
The value was “two animals die on the second day”.

And the lethal dose (KM mice; KM mice, intraperitoneal, single injection, 14 days observation)?
The lethal dose was “about 60 mg/kg”.

And the “body weight / weight gain” value (KM mice; mouse, in vivo, ip, 20 mg/kg)?
Its value is “not significantly different”.

What about the “weight gain compared with the negative control group” value (KM mice; mouse, in vivo, ip, 40 mg/kg) of the same molecule?
Its value is “slower”.

And the “Apoptosis in early stage” value ([4]; A549, 10 μM)?
Its value is 4.12 ± 1.73%.

And the “Apoptosis in late stage” value ([4]; A549, 10 μM)?
Its value is 9.70 ± 1.18%.

And the “Apoptosis in early stage” value ([4]; A549, 30 μM)?
The value was 16.23 ± 0.90%.

And the “Apoptosis in late stage” value ([4]; A549, 30 μM)?
The value was 16.08 ± 0.62%.

And the “Apoptosis in early stage” value ([4]; A549, 60 μM)?
Its value is 41.28 ± 5.36%.

What about the “Apoptosis in late stage” value ([4]; A549, 60 μM) of the same molecule?
The value was 27.32 ± 1.22%.

With N.N.[Cl][Pt][Cl] [Cisplatin, cisplatin, reference compound] as the molecule, how does the IC50 [1] read?
Its IC50 is 35.8 ± 1.89 µM.

What about the IC50 (mouse myeloma SP2/0) of the same molecule?
The IC50 was 17.4 ± 1.24 µM.

What about the IC50 [2] of the same molecule?
The IC50 was 23.4 ± 1.75 µM.

And the IC50 (human melanoma A375)?
The IC50 was 16.4 ± 0.36 µM.

What about the IC50 (cancer cell MCF-7; 48 h) of the same molecule?
Its IC50 is 14.2 µM.

What about the IC50 (human normal cell 293T) of the same molecule?
Its IC50 is 17.3 µM.

What about the IC50 (cancer cell HELA) of the same molecule?
The IC50 was 13.2 µM.
